Assay results from patent US11352340B2, “Pyridine and pyridimine compounds as PI3K-gamma inhibitors” (Incyte Corporation, priority 2016, dated 2022).
Structures can show the parent of a compound that is named as a salt.

Assays:
[1] = target: PI3Kγ (p110γ) Recombinant Human Protein (Homo sapiens (Human), UniProt P48736); test: PI3K-γ Scintillation Proximity Assay; format: biochemical; settings: read-out: PI3K-gamma SPA IC50
From the text: Example B. PI3K-γ Scintillation Proximity Assay
(§1) [γ-^33P]ATP (10 mCi/mL) and Wheat Germ Agglutinin (WGA) YSi SPA Scintillation Beads was purchased from Perkin-Elmer (Waltham, Mass.). Lipid kinase substrate, D-myo-Phosphatidylinositol 4,5-bisphosphate (PtdIns(4,5)P2)D (+)-sn-1,2-di-O-octanoylglyceryl, 3-O-phospho linked (PIP2), CAS 204858-53-7, was purchased from Echelon Biosciences (Salt Lake City, Utah). PI3Kγ (p110γ) Recombinant Human Protein was purchased from Life technology (Grand Island, N.Y.). ATP, MgCl2, DTT, EDTA, MOPS and CHAPS were purchased from Sigma-Aldrich (St. Louis, Mo.).
(§2) The kinase reaction was conducted in polystyrene 384-well Greiner Bio-one white plate from Thermo Fisher Scientific in a final volume of 25 μL. Inhibitors were first diluted serially in DMSO and added to the plate wells before the addition of other reaction components. The final concentration of DMSO in the assay was 2%. The PI3Kγ assay was carried out at room temperature in 20 mM MOPS, pH 6.7, 10 mM MgCl2, 5 mM DTT and CHAPS 0.03%. Reactions were initiated by the addition of ATP, the final reaction mixture consisted of 20 μM PIP2, 2 μM ATP, 0.5 μCi [γ-^33P] ATP, 13 nM PI3Kγ. Reactions were incubated for 120 min and terminated by the addition of 40 μL SPA beads suspended in quench buffer: 163 mM potassium phosphate pH 7.8, 20% glycerol, 25 mM EDTA. The final concentration of SPA beads is 1.0 mg/mL. After the plate sealing, plates were shaken overnight at room temperature and centrifuged at 1500 rpm for 10 min, the radioactivity of the product was determined by scintillation counting on Topcount (Perkin-Elmer). IC50 determination was performed by fitting the curve of percent of the solvent control activity versus the log of the inhibitor concentration using the GraphPad Prism 6.0 software.

[2] = target: PI3Kδ (p110δ/p85α) Recombinant Human Protein (Homo sapiens (Human), UniProt O00329); test: PI3Kδ Scintillation Proximity Assay; format: biochemical; settings: read-out: PI3K-delta SPA IC50
From the text: Example C. PI3Kδ Scintillation Proximity Assay
as §1, with “PI3Kδ (p110δ/p85α)” for “PI3Kγ (p110γ)”, “Eurofins (St Charles, Mo.).” for “Life technology (Grand Island, N.Y.).”
as §2, with “PI3Kδ” for “PI3Kγ”, “3.4” for “13”, “PI3Kδ.” for “PI3Kγ.”

Chain of PI3Kδ (p110δ/p85α) Recombinant Human Protein (O00329 whole entry): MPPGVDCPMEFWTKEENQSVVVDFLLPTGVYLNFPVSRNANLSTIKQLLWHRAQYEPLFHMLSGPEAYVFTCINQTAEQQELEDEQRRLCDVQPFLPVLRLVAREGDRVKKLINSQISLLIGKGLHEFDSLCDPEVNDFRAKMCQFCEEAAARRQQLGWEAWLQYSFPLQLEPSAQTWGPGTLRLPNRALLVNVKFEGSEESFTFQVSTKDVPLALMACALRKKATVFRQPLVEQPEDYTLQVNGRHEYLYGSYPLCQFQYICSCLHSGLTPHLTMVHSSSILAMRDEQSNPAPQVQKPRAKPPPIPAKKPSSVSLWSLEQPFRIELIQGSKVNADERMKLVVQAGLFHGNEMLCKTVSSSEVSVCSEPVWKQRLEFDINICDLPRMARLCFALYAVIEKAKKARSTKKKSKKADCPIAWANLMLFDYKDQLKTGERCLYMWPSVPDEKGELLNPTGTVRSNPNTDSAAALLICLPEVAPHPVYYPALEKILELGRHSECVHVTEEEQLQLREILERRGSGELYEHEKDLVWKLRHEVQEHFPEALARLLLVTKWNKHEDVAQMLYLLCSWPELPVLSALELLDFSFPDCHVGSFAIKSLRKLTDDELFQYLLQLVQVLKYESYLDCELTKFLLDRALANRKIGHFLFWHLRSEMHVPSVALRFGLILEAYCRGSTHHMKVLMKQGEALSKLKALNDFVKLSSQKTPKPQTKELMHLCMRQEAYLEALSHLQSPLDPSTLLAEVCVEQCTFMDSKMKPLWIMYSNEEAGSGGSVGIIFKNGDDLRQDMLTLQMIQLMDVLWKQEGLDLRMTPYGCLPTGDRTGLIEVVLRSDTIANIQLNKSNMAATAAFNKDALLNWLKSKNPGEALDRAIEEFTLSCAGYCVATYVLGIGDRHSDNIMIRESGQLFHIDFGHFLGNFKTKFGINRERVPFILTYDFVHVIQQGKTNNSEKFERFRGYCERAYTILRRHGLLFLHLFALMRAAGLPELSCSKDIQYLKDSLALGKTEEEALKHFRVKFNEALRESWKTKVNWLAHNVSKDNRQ
Chain of PI3Kδ (p110δ/p85α) Recombinant Human Protein (P27986 whole entry partner): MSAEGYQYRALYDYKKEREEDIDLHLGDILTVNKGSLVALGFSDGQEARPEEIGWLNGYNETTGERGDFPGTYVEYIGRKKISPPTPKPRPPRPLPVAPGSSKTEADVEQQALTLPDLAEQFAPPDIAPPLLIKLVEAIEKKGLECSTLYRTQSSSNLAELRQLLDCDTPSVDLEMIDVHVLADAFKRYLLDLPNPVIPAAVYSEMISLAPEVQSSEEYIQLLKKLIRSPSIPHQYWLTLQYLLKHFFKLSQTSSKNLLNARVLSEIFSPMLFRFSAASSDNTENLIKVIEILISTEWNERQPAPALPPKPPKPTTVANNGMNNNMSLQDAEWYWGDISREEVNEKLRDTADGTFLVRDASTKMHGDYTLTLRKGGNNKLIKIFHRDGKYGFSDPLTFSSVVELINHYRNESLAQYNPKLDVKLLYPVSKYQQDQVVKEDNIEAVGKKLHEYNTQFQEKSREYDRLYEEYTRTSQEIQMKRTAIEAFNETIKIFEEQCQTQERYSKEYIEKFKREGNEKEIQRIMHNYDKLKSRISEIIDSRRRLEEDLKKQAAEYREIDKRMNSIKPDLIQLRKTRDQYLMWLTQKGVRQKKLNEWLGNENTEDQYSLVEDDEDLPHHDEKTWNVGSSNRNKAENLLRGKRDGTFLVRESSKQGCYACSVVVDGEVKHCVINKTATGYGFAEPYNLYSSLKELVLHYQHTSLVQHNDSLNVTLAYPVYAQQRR
Chain of PI3Kγ (p110γ) Recombinant Human Protein (P48736 whole entry): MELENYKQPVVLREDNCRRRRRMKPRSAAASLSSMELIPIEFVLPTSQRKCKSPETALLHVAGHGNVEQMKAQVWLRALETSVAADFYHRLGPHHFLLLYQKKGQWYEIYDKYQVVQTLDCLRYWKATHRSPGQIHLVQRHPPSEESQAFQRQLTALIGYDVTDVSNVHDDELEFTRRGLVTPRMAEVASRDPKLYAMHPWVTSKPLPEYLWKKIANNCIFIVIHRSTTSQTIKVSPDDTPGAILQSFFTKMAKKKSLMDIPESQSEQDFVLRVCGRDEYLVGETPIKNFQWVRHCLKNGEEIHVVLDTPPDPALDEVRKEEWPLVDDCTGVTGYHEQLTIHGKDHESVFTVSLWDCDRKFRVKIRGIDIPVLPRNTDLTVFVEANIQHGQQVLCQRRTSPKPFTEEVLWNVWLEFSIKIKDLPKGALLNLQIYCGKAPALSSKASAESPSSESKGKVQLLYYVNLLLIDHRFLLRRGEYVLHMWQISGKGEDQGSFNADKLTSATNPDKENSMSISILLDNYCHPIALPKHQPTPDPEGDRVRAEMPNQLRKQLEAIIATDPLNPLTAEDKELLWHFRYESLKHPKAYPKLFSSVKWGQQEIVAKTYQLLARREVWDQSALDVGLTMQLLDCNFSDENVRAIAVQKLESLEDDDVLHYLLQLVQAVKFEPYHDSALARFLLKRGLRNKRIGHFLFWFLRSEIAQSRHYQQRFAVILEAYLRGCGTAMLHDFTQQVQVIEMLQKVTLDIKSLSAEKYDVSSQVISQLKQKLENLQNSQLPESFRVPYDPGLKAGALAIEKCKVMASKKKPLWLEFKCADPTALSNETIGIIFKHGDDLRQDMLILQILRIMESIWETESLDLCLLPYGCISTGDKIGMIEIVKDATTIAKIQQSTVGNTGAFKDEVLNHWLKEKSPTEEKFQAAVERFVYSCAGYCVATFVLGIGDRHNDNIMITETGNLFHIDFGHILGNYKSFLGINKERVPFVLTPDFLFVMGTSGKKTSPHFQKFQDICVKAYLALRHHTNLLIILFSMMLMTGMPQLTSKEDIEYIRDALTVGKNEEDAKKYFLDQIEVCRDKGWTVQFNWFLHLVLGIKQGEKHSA

Row | IC50 [1] [nM] | IC50 [2] [nM] | Structure (SMILES)
1 | ≤ 500 | > 500 | Cc1nc(-c2cc(-c3cncc(C4=CCN(C(=O)OC(C)(C)C)C4)c3)ccn2)[nH]c1C [Example 235, tert-Butyl 3-[2′-(4,5-dimethyl-1H-imidazol-2-yl)-3,4′-bipyridin-5-yl]-2,5-dihydro-1H-pyrrole-1-carboxylate]
2 | > 500 | > 500 | Cc1nc(-c2cc(C3=CCCN(CC4CCOCC4)C3)ccn2)[nH]c1C [Example 225, 2-(4,5-Dimethyl-1H-imidazol-2-yl)-4-(1-((tetrahydro-2H-pyran-4-yl)methyl)-1,2,5,6-tetrahydropyridin-3-yl)pyridine trifluoroacetate salt]
3 | ≤ 100 | ≤ 50 | CCOC(=O)Nc1cncc(-c2ccnc(-c3ncc(-c4ccccc4)[nH]3)c2)c1 [Example 140, Ethyl 2′-(5-phenyl-1H-imidazol-2-yl)-3,4′-bipyridin-5-ylcarbamate Trifluoroacetate Salt]
4 | > 500 | > 500 | COc1cncc(-c2ccnc(-c3nnc[nH]3)c2)c1 [Example 72, 5-Methoxy-2′-(4H-1,2,4-triazol-3-yl)-3,4′-bipyridine]
5 | ≤ 100 | ≤ 50 | Cc1nc(-c2cc(-c3cncc(C(=O)N4CCC(c5ccccn5)C4)c3)ccn2)[nH]c1C (racemic) [Example 170, (2′-(4,5-Dimethyl-1H-imidazol-2-yl)-3,4′-bipyridin-5-yl)(3-(pyridin-2-yl)pyrrolidin-1-yl)methanone trifluoroacetate salt]
6 | > 500 | ≤ 100 | Cc1[nH]c(-c2cc(-c3cncc(N4CCOCC4)c3)ccn2)nc1CNC1CCCC1 [Example 284, N-{[5-Methyl-2-(5-morpholin-4-yl-3,4′-bipyridin-2′-yl)-1H-imidazol-4-yl]methyl}cyclopentanamine]
7 | ≤ 500 | ≤ 500 | Cc1[nH]c(-c2cc(-c3cncc(N4CCOCC4)c3)ccn2)nc1C(C)O (racemic) [Example 124, 1-[5-Methyl-2-(5-morpholin-4-yl-3,4′-bipyridin-2′-yl)-1H-imidazol-4-yl]ethanol]
8 | ≤ 500 | ≤ 500 | CCN(C)C(=O)c1nc(-c2cc(-c3cncc(N4CCOCC4)c3)ccn2)[nH]c1C [Example 260, N-Ethyl-N,5-dimethyl-2-(5-morpholin-4-yl-3,4′-bipyridin-2′-yl)-1H-imidazole-4-carboxamide]
9 | ≤ 500 | > 500 | Cc1nc(-c2cc(C3=CCCN(S(C)(=O)=O)C3)ccn2)[nH]c1C [Example 220, 2-(4,5-Dimethyl-1H-imidazol-2-yl)-4-(1-(methylsulfonyl)-1,2,5,6-tetrahydropyridin-3-yl)pyridine trifluoroacetate salt]
10 | > 500 | > 500 | Cc1nc(-c2cc(C3=CCN(Cc4ccc(Cl)cc4)C3)ccn2)[nH]c1C [Example 229, 4-(1-(4-Chlorobenzyl)-2,5-dihydro-1H-pyrrol-3-yl)-2-(4,5-dimethyl-1H-imidazol-2-yl)pyridine trifluoroacetate salt]
11 | ≤ 500 | ≤ 500 | Cc1nc(-c2cc(-c3cncc(C(=O)N4CCN(C)CC4)c3)ccn2)[nH]c1C [Example 147, (2′-(4,5-Dimethyl-1H-imidazol-2-yl)-3,4′-bipyridin-5-yl)(4-methylpiperazin-1-yl)methanone]
12 | ≤ 100 | ≤ 100 | Cc1nc(-c2cc(-c3cncc(C(=O)N4CCC(O)CC4)c3)ccn2)[nH]c1C [Example 177, 1-{[2′-(4,5-Dimethyl-1H-imidazol-2-yl)-3,4′-bipyridin-5-yl]carbonyl}piperidin-4-ol]
13 | > 500 | ≤ 50 | c1ccc(-c2cnc(-c3cc(-c4ccc(N5CCOCC5)nc4)ccn3)[nH]2)cc1 [Example 41, 4-(2′-(5-Phenyl-1H-imidazol-2-yl)-3,4′-bipyridin-6-yl)morpholine trifluoroacetate salt]
14 | ≤ 500 | ≤ 500 | Cc1[nH]c(-c2cc(-c3cncc(N4CCOCC4)c3)ccn2)nc1C(=O)N(C)C1CCOC1 (racemic) [Example 261, N,5-Dimethyl-2-(5-morpholin-4-yl-3,4′-bipyridin-2′-yl)-N-(tetrahydrofuran-3-yl)-1H-imidazole-4-carboxamide]

The remaining lines, values behind:

Row | Structure (SMILES) | IC50 [1] [nM] | IC50 [2] [nM]
15 | N#Cc1ccc(C(=O)Nc2cncc(-c3ccnc(-c4ncc(-c5ccccc5)[nH]4)c3)c2)cc1 [Example 137, 4-Cyano-N-(2′-(5-phenyl-1H-imidazol-2-yl)-3,4′-bipyridin-5-yl)benzamide] | ≤ 500 | ≤ 500
16 | c1ccc(-c2cnc(-c3cc(-c4cnn(C5CCNCC5)c4)ccn3)[nH]2)cc1 [Example 25, 2-(5-Phenyl-1H-imidazol-2-yl)-4-(1-(piperidin-4-yl)-1H-pyrazol-4-yl)pyridine trifluoroacetate salt] | > 500 | > 500
17 | O=C(Nc1cncc(-c2ccnc(-c3ncc(-c4ccccc4)[nH]3)c2)c1)c1ccccc1Cl [Example 133, 2-Chloro-N-(2′-(5-phenyl-1H-imidazol-2-yl)-3,4′-bipyridin-5-yl)benzamide] | ≤ 500 | ≤ 100
18 | COC(=O)N1CC=C(c2cncc(-c3ccnc(-c4nc(C)c(C)[nH]4)c3)c2)C1 [Example 239, Methyl 3-(2′-(4,5-dimethyl-1H-imidazol-2-y1)-3,4′-bipyridin-5-yl)-2,5-dihydro-1H-pyrrole-1-carboxylate] | ≤ 500 | ≤ 500
19 | c1ccc(-c2cnc(-c3cc(-c4cnn(C5CCOC5)c4)ccn3)[nH]2)cc1 (racemic) [Example 60, 2-(5-Phenyl-1H-imidazol-2-yl)-4-(1-(tetrahydrofuran-3-yl)-1H-pyrazol-4-yl)pyridine trifluoroacetate salt] | ≤ 500 | ≤ 500
20 | Cc1n[nH]c(C)c1-c1ccnc(-c2ncc(-c3ccccc3)[nH]2)c1 [Example 11, 4-(3,5-Dimethyl-1H-pyrazol-4-yl)-2-(5-phenyl-1H-imidazol-2-yl)pyridine trifluoroacetate salt] | > 500 | > 500
21 | CCS(=O)(=O)n1cc(-c2ccnc(-c3ncc(-c4ccccc4)[nH]3)c2)cn1 [Example 45, 4-(1-(Ethylsulfonyl)-1H-pyrazol-4-yl)-2-(5-phenyl-1H-imidazol-2-yl)pyridine trifluoroacetate salt] | ≤ 500 | ≤ 500
22 | Cn1nc(C(F)(F)F)cc1-c1ccnc(-c2ncc(-c3ccccc3)[nH]2)c1 [Example 14, 4-(1-Methyl-3-(trifluoromethyl)-1H-pyrazol-5-yl)-2-(5-phenyl-1H-imidazol-2-yl)pyridine trifluoroacetate salt] | > 500 | > 500
23 | Clc1ccc(Cn2cc(-c3ccnc(-c4nc(C5CCNC5)c[nH]4)c3)cn2)cc1 (racemic) [Example 306, 4-[1-(4-Chlorobenzyl)-1H-pyrazol-4-yl]-2-(4-pyrrolidin-3-yl-1H-imidazol-2-yl)pyridine Trifluoroacetate Salt] | > 500 | > 500
24 | CCOC(=O)CCn1cc(-c2ccnc(-c3ncc(-c4ccccc4)[nH]3)c2)cn1 [Example 55, Ethyl 3-(4-(2-(5-phenyl-1H-imidazol-2-yl)pyridin-4-yl)-1H-pyrazol-1-yl)propanoate trifluoroacetate salt] | ≤ 500 | ≤ 500
